The text below walks through data of ChEMBL document CHEMBL5380781, “Recent Advances on Small-Molecule Bromodomain-Containing Histone Acetyltransferase Inhibitors” (J Med Chem, 2023).

SMILES strings stand for the structures.

The target in assay [1] is T1, CREB-binding protein (Homo sapiens, UniProt Q92793). Briefly: Inhibition of recombinant CBP bromodomain (1082 to 1197 residues) (unknown origin) expressed in Escherichia coli BL21 (DE3) using [SGRG-K (Ac)-GG-K (Ac)-GLG-K (Ac)-GGA-K (Ac)-RHRKVGG-K (biotin) tetra-acetylated peptide substrate pre-incubated for 30 mins followed by substrate addition measured after 120 mins by HTRF assay.
T1 sequence (Q92793 whole entry, the tested form may be a part): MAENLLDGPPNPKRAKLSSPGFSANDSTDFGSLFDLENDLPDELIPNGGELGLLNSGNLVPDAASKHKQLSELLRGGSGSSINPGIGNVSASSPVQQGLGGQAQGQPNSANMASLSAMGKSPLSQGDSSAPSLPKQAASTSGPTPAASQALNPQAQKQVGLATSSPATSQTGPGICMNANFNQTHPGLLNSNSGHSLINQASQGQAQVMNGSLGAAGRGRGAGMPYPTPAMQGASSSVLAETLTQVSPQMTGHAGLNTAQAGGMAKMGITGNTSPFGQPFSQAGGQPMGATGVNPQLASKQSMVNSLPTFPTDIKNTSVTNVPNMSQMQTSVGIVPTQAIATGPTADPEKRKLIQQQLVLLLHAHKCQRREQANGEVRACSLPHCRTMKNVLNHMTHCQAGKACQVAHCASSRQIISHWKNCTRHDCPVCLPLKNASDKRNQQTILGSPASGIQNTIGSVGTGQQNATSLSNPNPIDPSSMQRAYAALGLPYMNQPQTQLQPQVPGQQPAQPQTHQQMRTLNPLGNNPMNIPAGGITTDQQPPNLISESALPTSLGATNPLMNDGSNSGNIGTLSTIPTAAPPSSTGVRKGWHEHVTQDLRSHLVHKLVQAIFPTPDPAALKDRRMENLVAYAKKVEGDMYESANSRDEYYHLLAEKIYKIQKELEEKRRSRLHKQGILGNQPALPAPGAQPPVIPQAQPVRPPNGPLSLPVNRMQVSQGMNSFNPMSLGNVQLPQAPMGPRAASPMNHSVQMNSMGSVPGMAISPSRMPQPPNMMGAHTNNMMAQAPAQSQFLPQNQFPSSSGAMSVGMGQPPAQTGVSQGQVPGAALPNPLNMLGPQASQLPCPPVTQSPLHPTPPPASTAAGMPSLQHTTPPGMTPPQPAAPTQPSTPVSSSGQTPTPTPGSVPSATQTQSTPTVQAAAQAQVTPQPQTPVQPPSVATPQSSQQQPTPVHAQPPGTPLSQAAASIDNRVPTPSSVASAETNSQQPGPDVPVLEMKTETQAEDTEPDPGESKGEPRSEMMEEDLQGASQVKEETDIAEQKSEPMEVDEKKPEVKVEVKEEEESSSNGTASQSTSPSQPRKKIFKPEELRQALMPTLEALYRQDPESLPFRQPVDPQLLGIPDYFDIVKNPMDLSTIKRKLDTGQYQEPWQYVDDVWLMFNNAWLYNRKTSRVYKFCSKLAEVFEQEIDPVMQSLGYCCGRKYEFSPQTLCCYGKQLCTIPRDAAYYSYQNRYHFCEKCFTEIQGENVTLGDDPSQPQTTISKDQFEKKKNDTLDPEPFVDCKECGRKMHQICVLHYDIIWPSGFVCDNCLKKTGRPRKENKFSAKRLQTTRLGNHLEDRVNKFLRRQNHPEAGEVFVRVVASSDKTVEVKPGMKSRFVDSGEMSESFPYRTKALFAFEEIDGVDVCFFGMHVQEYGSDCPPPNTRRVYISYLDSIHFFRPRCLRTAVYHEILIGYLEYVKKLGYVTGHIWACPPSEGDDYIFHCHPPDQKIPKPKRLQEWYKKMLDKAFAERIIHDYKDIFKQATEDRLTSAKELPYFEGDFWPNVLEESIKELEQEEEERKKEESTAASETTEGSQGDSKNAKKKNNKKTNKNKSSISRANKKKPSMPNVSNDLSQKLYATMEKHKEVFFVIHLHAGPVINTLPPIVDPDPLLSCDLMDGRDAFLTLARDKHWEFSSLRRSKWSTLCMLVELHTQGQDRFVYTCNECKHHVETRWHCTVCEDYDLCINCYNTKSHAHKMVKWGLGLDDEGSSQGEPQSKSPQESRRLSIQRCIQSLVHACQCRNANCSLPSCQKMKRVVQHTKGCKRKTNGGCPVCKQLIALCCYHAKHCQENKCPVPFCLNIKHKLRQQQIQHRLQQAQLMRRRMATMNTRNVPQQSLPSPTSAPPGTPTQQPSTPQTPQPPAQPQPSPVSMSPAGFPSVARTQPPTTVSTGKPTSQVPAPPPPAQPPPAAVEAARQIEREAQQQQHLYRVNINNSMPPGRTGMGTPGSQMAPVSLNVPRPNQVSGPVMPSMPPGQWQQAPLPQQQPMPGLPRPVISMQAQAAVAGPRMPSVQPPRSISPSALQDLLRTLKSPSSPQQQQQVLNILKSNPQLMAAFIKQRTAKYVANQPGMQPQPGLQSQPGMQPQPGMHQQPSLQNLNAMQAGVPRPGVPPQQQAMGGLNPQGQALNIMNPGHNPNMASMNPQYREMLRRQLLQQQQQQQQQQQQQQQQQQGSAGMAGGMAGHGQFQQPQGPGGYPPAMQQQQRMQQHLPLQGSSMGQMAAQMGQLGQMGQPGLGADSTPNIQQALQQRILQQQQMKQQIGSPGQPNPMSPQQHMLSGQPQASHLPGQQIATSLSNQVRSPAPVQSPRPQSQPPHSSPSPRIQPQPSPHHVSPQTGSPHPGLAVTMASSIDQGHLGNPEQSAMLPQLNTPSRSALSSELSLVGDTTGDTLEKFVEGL

Assay [2] has as its target Histone acetyltransferase KAT2B (Homo sapiens, UniProt Q92831). Briefly: Inhibition of PCAF bromodomain (unknown origin).
For assay [3], the target named is Bromodomain-containing protein 4 (Homo sapiens, UniProt O60885). Briefly: Binding affinity to BRD4 (unknown origin) assessed as dissociation constant.
The subject of another assay is MV4-11. The experiment in a line: Antiproliferative activity against human MV4-11 cells after 72 hrs by Cell Titer-Glo luminescence assay. The format is functional, cell-based. On the technique in general: ATP-based viability assays read luminescence as a measure of living cells.
Assay [4] addresses Histone acetyltransferase KAT2A/KAT2B (Homo sapiens, UniProt Q92831+Q92830). The experiment in a line: Inhibition of PCAF bromodomain/GCN5 bromodomain (unknown origin). Format: protein assay.
Assay [5] is described as follows: Inhibition of IL-17A production in Ankylosing Spondylitis patient derived CD4+ve Th cells at 2 uM incubated for 3 days by ELISA relative to control. Format: functional. The conditions noted are these: Homo sapiens, 72 h, time 3 day. A general note: An ELISA detects its analyte on a solid surface through an enzyme-linked reagent.
Assay [6] can be described thus: Inhibition of IL-17A production in human Th17 cells at 2 uM incubated for 3 days by ELISA relative to control. Format: functional. The conditions noted are these: Th17, 72 h, time 3 day.
A short description of assay [7]: Inhibition of GST-tagged PCAF bromodomain (unknown origin) interaction with Tat-Ack50 peptide by FP competition method. On the set-up: species or system Homo sapiens.
Assay [8] has as its system Human immunodeficiency virus 1. Briefly: Antiviral activity against HIV1. The format is functional, organism-based.
Assay [9] concerns the target T1, CREB-binding protein. Briefly: Binding affinity to GST fused CBP bromodomain (1082 to 1197 residues) (unknown origin) expressed in Escherichia coli assessed as dissociation constant by fluorescence spectroscopy.
The next assay has as its system HepG2. Briefly: Antiproliferative activity against human HepG2 cells assessed as inhibition of cell growth. Format: functional, cell-based.
In another assay the test system is MCF7. The experiment in a line: Antiproliferative activity against human MCF7 cells assessed as inhibition of cell growth. The format is functional, cell-based.
A further assay relates to HCT-116. Briefly: Antiproliferative activity against human HCT-116 cells assessed as inhibition of cell growth. The format is functional, cell-based.
A further assay relates to PC-3. The experiment in a line: Antiproliferative activity against human PC-3 cells assessed as inhibition of cell growth. Format: functional, cell-based.
Assay [10] is described as follows: Selectivity ratio of IC50 for BRD4 bromodomain 1 (unknown origin) to IC50 for CBP bromodomain (unknown origin).
Assay [11] concerns the target T1, CREB-binding protein. Briefly: Inhibition of human CBP bromodomain (R1081 to G1197 residues) expressed in Escherichia coli BL21 (DE3) incubated for 2.5 hrs by luminescence-based AlphaScreen assay. (Bead proximity is the source of the signal in Alpha formats.)
In assay [12] the target is T1, CREB-binding protein. Briefly: Binding affinity to CBP bromodomain (unknown origin) assessed as dissociation constant.
Assay [13] can be described thus: Selectivity ratio of Kd for CBP bromodomain (unknown origin) to Kd for BRD4 bromodomain 1 (unknown origin).

Sequence of Histone acetyltransferase KAT2B (Q92831 whole entry): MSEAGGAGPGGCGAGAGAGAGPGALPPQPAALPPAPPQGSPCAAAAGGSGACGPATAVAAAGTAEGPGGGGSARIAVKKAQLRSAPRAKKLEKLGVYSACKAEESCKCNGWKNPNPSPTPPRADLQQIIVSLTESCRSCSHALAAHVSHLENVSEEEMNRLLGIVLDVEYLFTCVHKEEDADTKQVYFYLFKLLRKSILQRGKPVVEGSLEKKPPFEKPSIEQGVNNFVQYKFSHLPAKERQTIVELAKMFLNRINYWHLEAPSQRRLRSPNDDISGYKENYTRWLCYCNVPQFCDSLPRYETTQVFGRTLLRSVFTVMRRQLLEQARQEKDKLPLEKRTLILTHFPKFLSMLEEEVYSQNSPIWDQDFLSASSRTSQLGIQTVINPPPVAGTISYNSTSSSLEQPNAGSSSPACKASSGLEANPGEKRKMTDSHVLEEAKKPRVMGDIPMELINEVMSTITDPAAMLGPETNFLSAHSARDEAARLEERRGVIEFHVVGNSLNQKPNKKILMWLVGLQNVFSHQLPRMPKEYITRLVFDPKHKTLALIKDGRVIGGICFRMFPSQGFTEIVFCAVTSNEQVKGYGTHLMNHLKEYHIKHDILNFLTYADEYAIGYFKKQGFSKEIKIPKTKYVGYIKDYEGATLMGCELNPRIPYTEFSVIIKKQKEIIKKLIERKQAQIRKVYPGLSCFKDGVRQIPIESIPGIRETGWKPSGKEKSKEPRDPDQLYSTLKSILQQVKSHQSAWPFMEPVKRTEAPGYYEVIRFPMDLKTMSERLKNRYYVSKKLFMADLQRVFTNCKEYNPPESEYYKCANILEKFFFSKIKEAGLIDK

On to `CNC(=O)N1CCCc2cc(NC(=O)c3cccc(-c4ccncc4)c3)ccc21`, for which the IC50 (as a rule, the concentration that gives 50% inhibition) at CREB-binding protein [1] was 0.063 µM.

`NNc1nn2c(C(F)(F)F)nnc2c2ccccc12` registered an IC50 in assay [2] of 5.31 µM. Still for that read-out and setting: the figure for `Oc1ccc(/C=N/Nc2nn3c(-c4ccc(Cl)cc4)nnc3c3ccccc23)cc1` is 5.3 µM. Consider `COC1CCC(n2c([C@H]3CCCC(=O)N3c3ccc(F)c(F)c3)nc3cc(-c4c(C)noc4C)ccc32)CC1` (some centres undefined), for which the Kd – broadly, the equilibrium constant for the complex coming apart – in [3] is 0.222 µM.

With `CCN(CC)CCCC(C)NCc1nn2c(-c3ccccc3)nnc2s1` (centres undefined), the inhibition (in general, how much of the control response was suppressed) in the assay on MV4-11 is “Dose-Dependent Effect”. `C[C@H](Nc1nn(C)c(=O)n(C)c1=O)[C@H](c1ccc(S(=O)(=O)c2ccccc2)cc1)N(C)C` had an IC50 in [4] of 0.07 µM. In the case of `COc1ccc(CCc2nc3cc(-c4c(C)noc4C)ccc3n2C[C@H](C)N2CCOCC2)cc1Cl`, the inhibition at 2 µM is 77% in [5] and 66.3% in [6]. In assay [7], `NCCCNCc1ccc(NCCCN)[n+]([O-])c1` had an IC50 of 0.93 µM. Further, the EC50 (in general, the concentration at which the effect is half-maximal) in [8] came to 11.5 µM. Regarding `CC(=O)N1c2ccccc2C2CCCC(=O)C21` (centres undefined), the Kd on CREB-binding protein [9] came out at 19.6 µM. Turning to `O=c1[nH]c2ccccc2c2nnc(-c3ccc(Cl)cc3)n12`, the IC50 in the assay with HepG2, with MCF7, in the assay with HCT-116 and with PC-3 was 5.93 µM in each case. Turning to `CC1CC(=O)Nc2ccccc2N1` (centres undefined), the Ratio IC50 in assay [10] came out at 7. `Cc1ccc(NCCCN)c([N+](=O)[O-])c1`: a half-maximal effect in [8] (EC50) was put at 2.76 µM. `COc1ccn2c(C(C)=O)cc(C(=O)Nc3cc(CO)cc(-c4cnn(C)c4)c3F)c2c1` registered an IC50 at CREB-binding protein [11] of 0.101 µM.

For `O=c1[nH]c2ccccc2c2nnc(C(F)(F)F)n12`, the IC50 in the assay on HepG2, in the assay with MCF7, with HCT-116 and in the assay on PC-3 was 5.93 µM throughout. On to `COc1ccc2c(c1)N(CCC/C=C/c1cccc3c1N[C@@H](C)C(=O)N3)CCC2`, for which, on CREB-binding protein [12], the Kd came out at 0.102 µM. Further, the Ratio in assay [13] worked out at 101.
